Details of data set [1]: method as in PMID 25175806. The settings on record: cited from earlier work.
Data set [2] has as its target T1, AURKA (Homo sapiens, UniProt O14965).
T1 construct: the catalytic domain of human AURKA (amino acids 122–430); His-tag followed by TEV protease cleavage site (N); made in house; host or cells: bacterial culture (LB, kanamycin, IPTG induction; pETM11)
T1 sequence (O14965 122-403 limits assumed): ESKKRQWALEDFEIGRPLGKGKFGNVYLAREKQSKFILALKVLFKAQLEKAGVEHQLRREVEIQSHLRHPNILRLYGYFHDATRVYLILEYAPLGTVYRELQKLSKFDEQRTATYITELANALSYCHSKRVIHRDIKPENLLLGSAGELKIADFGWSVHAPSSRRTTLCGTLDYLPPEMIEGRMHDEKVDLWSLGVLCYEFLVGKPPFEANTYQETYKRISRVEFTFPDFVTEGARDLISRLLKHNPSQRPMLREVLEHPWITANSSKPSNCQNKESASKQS
As to the kind of experiment: SPR binding kinetics on immobilized AURKA. Particulars: 25 °C, flow rate 150 μL/min.
Protocol: AURKA was immobilized onto a PCH sensor chip, and each compound was injected at increasing concentrations in the running buffer. The interaction between AURKA and the ligands was indicated by the increase in Resonance Units (RUs), compared to the baseline.
SPR experiments were performed at 25 °C using a Pioneer AE optical biosensor (Molecular Devices-ForteBio, Fremont, CA, USA) equipped with a PCH sensor chip and equilibrated with running buffer 10 mM Hepes pH 7.4, 150 mM NaCl, 1% DMSO, 0.005% Tween20. The sensor chip was chemically activated for 7 min by injecting 175 μL of a 1:1 mixture of 100 mM N-hydroxysuccinimide (NHS) and 400 mM ethyl−3 (3-dimethylamino) propyl carbodiimide (EDC) at a flow rate of 25 μL/min. AURKA was immobilized on both Ch1 and Ch3 channels of the activated sensor chip by using standard amine-coupling procedures [42]. Flow cell Ch2 was left empty and used as a control. Briefly, a 0.1 mg/mL AURKA solution (in 10 mM sodium acetate, pH 4.5) was injected at 10 μL/min on channels 1 and 3 (channel 2 was used as reference), followed by a 70 μL injection of 1 M ethanolamine pH 8.0 to block any remaining activated groups on the surface. AURKA was captured to a density of ~14,000 resonance units (RUs) on both Ch1 and Ch3 flow cells.
A dissociation of 180 s was used and a mild regeneration of the surfaces was carried out every three injections using a solution of 1 M NaCl and 10 mM NaOH. At least two experiments for each analyte were performed. The interaction of the tested inhibitors with immobilized AURKA was detected as a measure of the change in mass concentration, expressed in RUs. […] All sensorgrams were processed using double referencing [44]. First, responses from the reference surface (Ch2) were subtracted from the binding responses collected over the reaction surfaces to correct for bulk refractive index changes between the flow buffer and analyte sample. […] To obtain kinetic rate constants and affinity constants, the corrected response data were fit in the QDAT software. […] The equilibrium dissociation constant (Kd) was determined by the ratio koff/kon.

The test system of data set [3] is AURKA. The settings on record: cited from earlier work.
For data set [4], the system named is IMR-32 cells. As to the kind of experiment: FACS analysis (PI) of cell cycle and sub-G1 DNA content. It counts as cell-based. The settings on record: IMR-32, 1 μM, 48 h; DMSO about 8%.
Description: We then moved to a neuroblastoma MYCN-amplified cell line, IMR-32.
(C) FACS analysis of IMR-32 cells treated as in (A) and stained with PI. The region used to evaluate the fraction of cells displaying sub-G1 DNA content is indicated. The percentage of vital cells distributed in each phase of the cell cycle, as well as the percentage of cells with sub-G1 DNA content calculated on the total acquired events, are shown (one experiment representative of three independent experiments).
To analyze the cell-cycle phases distribution, both non-adherent and adherent cells were collected by centrifugation, washed with PBS, and fixed with 50% methanol overnight at 4 °C. Cell-cycle phase distribution was analyzed after incubation for 30 min in the dark with propidium iodide (PI, 0.03 mg/mL) and RNAsi A (0.2 mg/mL) using a flow cytofluorimeter Epics XL apparatus (Beckman Coulter, Brea, CA, USA). […] Cell samples were analyzed in a Coulter Epics XL cytofluorometer (Beckman Coulter) equipped with EXPO 32 ADC software. At least 10,000 cells per sample were acquired. The percentage of cells in the different phases of cell-cycle and in the sub-G1 compartment was calculated using Flowing Software 2.5.1.
A further data set has as its target T2, AURKA/N-Myc complex (Homo sapiens, UniProt O14965).
T2 construct: endogenous in cells; host or cells: U2OS FRT/TO Flp-In; AURKA endogenous, N-Myc-tFT from a stably integrated, doxycycline-inducible construct
T2 sequence (O14965 1-403): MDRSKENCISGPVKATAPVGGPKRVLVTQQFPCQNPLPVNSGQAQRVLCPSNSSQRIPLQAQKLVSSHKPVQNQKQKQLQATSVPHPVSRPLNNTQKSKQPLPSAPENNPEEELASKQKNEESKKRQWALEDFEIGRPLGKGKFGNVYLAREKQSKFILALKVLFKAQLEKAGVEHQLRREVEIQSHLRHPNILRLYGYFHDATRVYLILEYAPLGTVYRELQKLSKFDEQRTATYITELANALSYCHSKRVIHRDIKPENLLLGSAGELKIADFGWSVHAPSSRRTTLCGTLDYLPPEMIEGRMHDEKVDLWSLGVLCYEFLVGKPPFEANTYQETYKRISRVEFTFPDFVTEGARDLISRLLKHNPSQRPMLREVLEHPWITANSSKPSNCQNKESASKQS
As to the kind of experiment: In situ Proximity Ligation Assay of AURKA/N-Myc in U2OS MYCN cells. The format is cell-based.

The test system of data set [5] is IMR-32 cells. As to the kind of experiment: Cell death (PARP-1 cleavage) and morphology of IMR-32 cultures. It counts as cell-based. Particulars: IMR-32, 1 μM, 48 h.

SMILES strings stand for the structures. Where two headings read alike, the source gives them in different places.

Description for AURKA/N-Myc complex: After treatment with the investigated inhibitors, the raw number of isPLA spots within the cell nuclei was normalized by the mean value of the control population. Cells were then assigned to four different classes, based on their number of normalized spots per nucleus (Figure 4C).
(C) in situ Proximity Ligation Assays to visualize the AURKA/N-Myc complex formation. […] The histograms on the right show the distribution (%) of cells in classes, defined by isPLA spot values. Values represent isPLA spots per nucleus, normalized to the average value in control cells (at least 1400 measured cells per condition, from four independent experiments); mean and SDare shown. Statistical analysis by 2-way ANOVA-Tukey’s multiple comparison, *: p < 0.05; ***: p < 0.001.
The Duolink PLA kit (DUO92007, Sigma-Aldrich) was used according to the manufacturer’s instructions. […] Counterstaining with DAPI (DUO82040, DAPI mounting media, Sigma Aldrich) was performed at the end of the procedure. For quantification of isPLA fluorescence signals, samples were analyzed with an inverted microscope Eclipse Ti (Nikon) using a Clara camera (ANDOR technology) and 60× (oil immersion, N.A. 1.4) objective along the z-axis every 0.4 μm for a range of 3.2 μm (for the U2OS MYCN cell line) or 5 μm (for the IMR-32 cell line). Images were acquired in the automated mode with the JOBS module of the Nis-Elements H.C. […]

On to `O=C(Nc1ccc(Nc2nccc(Nc3cc(C4CCCC4)[nH]n3)n2)cc1)Nc1cccc(C(F)(F)F)c1` [CD532], for which, in data set [1], the half-life result is “short half-life” and the oral bioavailability result is reported as “poor oral bioavailability”.

For the molecule `O=C(c1cccc(Cl)c1F)N1CCN(Cc2cccc(Nc3nccs3)n2)CC1` [MK8754, MK8745], on AURKA [2], the Koff stood at 12.0 ± 0.09 s^−1 × 10^−3 and the Kon stood at 7.8 ± 0.1 M^−1s^−1 × 10^6. The same molecule showed a Kd on AURKA [2] (koff/kon) of 1.55 ± 0.03 nM. Besides, the IC50 in the data set on AURKA [3] was 0.6 nM.

For `O=C(O)c1ccc(Nc2ncc3c(n2)-c2ccc(Cl)cc2C(c2c(F)cccc2F)=NC3)cc1` [MLN8054], the “cells with sub-G1 DNA content” value in the data set on IMR-32 cells [4] is given as ~30%. The “AURKA/N-Myc interaction (isPLA spots per nucleus)” value at AURKA/N-Myc complex is “significantly reduced”. Further, the “cleaved PARP-1 (cell death induction)” value in the data set with IMR-32 cells [5] (Western blot) is listed as “a fraction of cleaved PARP-1”.

With `COc1cc2c(Nc3ccc(NC(=O)c4ccccc4)cc3)ncnc2cc1OCCCN1CCOCC1` [ZM447439], the IC50 in the data set on AURKA [3] is […]. Moreover, on AURKA/N-Myc complex (U2OS MYCN, 1 μM, MG-132 4 h before fixation), the “AURKA/N-Myc interaction (isPLA spots per nucleus)” value is “no difference between control and treated cells”. The cell morphology result in the data set on IMR-32 cells [5] (bright-field microscopy) was “only induced spherical mitotic shapes”.
